Data as given in PMC3038857, “Using Nuclear Receptor Activity to Stratify Hepatocarcinogens” (PLoS ONE, 2011).
Read-outs that look alike come from different tables or passages of the source.

How the values were obtained:
LXRa (NR1H3) = biological target: T1, LXRa (NR1H3) (Homo sapiens, UniProt Q13133); assay: ATG_LXRa_TRANS: Factorial reporter gene assay (HepG2); assay type: cell-based
T1 construct: expressed in transfected cells; host or cells: HepG2
T1 sequence (Q13133 1-447): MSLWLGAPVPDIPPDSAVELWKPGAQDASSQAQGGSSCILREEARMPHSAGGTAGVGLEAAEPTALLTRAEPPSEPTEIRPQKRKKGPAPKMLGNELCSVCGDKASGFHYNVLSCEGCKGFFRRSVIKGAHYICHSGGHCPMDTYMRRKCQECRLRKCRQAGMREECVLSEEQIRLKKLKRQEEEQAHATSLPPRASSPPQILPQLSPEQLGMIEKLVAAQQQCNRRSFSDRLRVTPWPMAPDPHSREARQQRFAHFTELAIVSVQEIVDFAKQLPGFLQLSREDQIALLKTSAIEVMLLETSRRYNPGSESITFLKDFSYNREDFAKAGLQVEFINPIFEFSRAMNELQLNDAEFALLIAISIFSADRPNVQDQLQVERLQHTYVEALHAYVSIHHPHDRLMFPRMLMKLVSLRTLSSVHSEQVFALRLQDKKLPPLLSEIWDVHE
Procedure: (§1) A multiple reporter transcription unit (MRTU) library consisting of 48 transcription factor binding sites was transfected into the HepG2 human liver hepatoma cell line. In addition to the cis-acting reporter genes (CIS), a modification of the approach was used to generate a trans-system (TRANS) with a mammalian one-hybrid assay consisting of an additional 25 MRTU library reporting the activity of nuclear receptor super-family members. […] These assays were performed by Attagene Inc. (Morrisville NC) under contract to EPA.
(§2) In addition to the cis-acting reporter genes (CIS), a modification of the approach was used to generate a trans-system (TRANS) with a mammalian one-hybrid assay consisting of an additional 25 MRTU library reporting the activity of nuclear receptor super-family members. […] Chemicals were then tested in the CIS and TRANS assays at seven concentrations starting at the MTC and followed by three-fold serial dilutions. These assays were performed by Attagene Inc. (Morrisville NC) under contract to EPA. Detailed description of the methods, data and analysis methods for this dataset will be presented in a separate publication.

LXRb (NR1H2) = biological target: T2, LXRb (NR1H2) (Homo sapiens, UniProt P55055); assay: ATG_LXRb_TRANS: Factorial reporter gene assay (HepG2); assay type: cell-based
T2 construct: expressed in transfected cells; host or cells: HepG2
T2 sequence (P55055 1-460): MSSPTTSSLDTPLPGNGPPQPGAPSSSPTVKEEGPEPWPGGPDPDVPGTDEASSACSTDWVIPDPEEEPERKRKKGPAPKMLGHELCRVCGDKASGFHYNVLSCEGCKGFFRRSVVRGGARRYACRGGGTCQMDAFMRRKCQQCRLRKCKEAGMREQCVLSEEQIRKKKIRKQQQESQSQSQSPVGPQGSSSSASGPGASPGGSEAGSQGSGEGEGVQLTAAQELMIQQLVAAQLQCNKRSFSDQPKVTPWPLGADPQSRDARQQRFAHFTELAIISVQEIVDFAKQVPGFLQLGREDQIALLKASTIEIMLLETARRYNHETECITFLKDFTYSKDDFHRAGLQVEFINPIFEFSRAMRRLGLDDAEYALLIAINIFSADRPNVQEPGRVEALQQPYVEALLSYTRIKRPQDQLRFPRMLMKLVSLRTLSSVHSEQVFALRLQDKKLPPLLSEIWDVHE
Procedure: as §1, §2

[1] = biological target: T3, PPARA (peroxisome proliferator-activated receptor alpha) (Homo sapiens, UniProt Q07869); assay: ATG_PPARa_TRANS: Factorial reporter gene assay (HepG2); assay type: cell-based; parameters: scale not given here; details: scale not given, looks like -log10 of molar active concentration, 0 = no activity
T3 construct: expressed in transfected cells; host or cells: HepG2
T3 sequence (Q07869 1-468): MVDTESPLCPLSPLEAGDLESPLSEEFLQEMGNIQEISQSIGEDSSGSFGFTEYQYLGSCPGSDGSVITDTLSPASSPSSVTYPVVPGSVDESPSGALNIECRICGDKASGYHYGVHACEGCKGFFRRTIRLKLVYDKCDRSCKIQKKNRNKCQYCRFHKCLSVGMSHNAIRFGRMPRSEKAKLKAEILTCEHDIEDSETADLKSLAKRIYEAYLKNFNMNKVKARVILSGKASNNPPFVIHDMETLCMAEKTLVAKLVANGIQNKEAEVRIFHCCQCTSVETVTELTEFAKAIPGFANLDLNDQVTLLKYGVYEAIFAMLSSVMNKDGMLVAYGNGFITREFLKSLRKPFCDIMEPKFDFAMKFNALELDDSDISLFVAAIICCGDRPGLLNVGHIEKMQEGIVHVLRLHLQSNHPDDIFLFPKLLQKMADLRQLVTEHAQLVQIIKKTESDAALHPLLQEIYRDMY
Procedure: as §1, §2

ERa (ESR1) = biological target: T4, ERa (ESR1) (Homo sapiens, UniProt P03372); assay: NCGC_ERalpha_Antagonist: GAL4 BLAM Reporter gene assay: ERa; assay type: cell-based; details: antagonist mode; scale not given, looks like -log10 of molar active concentration; 0 = no activity
T4 construct: expressed in transfected cells; host or cells: HEK293
T4 sequence (P03372 whole entry, the tested form may be a part): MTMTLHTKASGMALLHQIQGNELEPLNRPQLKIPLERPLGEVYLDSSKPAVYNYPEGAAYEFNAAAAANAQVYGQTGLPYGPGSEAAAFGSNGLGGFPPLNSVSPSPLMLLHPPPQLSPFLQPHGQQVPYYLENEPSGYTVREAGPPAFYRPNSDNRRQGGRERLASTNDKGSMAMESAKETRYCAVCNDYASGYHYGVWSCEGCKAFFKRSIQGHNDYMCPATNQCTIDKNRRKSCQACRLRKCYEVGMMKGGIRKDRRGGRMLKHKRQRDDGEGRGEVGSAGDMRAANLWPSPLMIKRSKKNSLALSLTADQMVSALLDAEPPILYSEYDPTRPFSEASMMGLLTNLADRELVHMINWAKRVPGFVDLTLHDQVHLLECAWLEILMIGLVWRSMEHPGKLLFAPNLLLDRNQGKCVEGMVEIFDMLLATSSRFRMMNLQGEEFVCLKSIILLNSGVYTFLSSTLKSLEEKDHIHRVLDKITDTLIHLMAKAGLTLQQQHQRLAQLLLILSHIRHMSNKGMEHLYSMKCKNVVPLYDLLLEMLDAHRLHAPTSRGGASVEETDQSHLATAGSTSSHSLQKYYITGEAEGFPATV

Rat Liver [2] = details: ref ToxRefDB, cited from earlier work
Rat Liver [3] = details: ref ToxRefDB, cited from earlier work; remark: listed apart in the source
CAR (NR1I3) = biological target: T5, CAR (NR1I3) (Homo sapiens, UniProt Q14994); assay: ATG_PBREM_CIS: Factorial reporter gene assay (HepG2); assay type: cell-based; parameters: endogenous in cells; host or cells: HepG2; scale not given here
T5 sequence (Q14994 1-352): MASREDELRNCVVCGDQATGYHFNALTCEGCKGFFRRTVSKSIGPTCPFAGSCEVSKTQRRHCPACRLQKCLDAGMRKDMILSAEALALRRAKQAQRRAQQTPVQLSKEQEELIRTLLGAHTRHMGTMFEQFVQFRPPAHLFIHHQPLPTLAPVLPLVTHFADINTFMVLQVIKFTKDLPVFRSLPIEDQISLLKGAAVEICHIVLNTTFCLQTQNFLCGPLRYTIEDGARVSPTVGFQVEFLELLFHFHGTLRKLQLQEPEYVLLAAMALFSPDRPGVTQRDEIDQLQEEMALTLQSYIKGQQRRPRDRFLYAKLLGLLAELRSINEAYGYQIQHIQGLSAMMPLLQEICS
Outline: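 HepG2 cells transfected with multiplexed reporter libraries: cis-acting binding-site reporters (CIS) and a one-hybrid nuclear-receptor trans system (TRANS). Chemicals tested at seven concentrations, starting at the maximum tolerated concentration with three-fold serial dilutions.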

[4] = HepG2, scale not given, looks like -log10 of molar active concentration, 0 = no activity
[5] = rat chronic study, liver, any lesion, coded 6 / 0, code not explained here
[6] = rat chronic study, liver, preneoplastic lesion, coded 6 / 0, code not explained here

Q: With CCSC(=O)N(CC(C)C)CC(C)C [r49] as the compound, how does the ATG_LXRa_TRANS (LXRa (NR1H3); [4]) read?
A: 0

Q: What about the ATG_LXRb_TRANS (LXRb (NR1H2); [4]) of the same compound?
A: 0

Q: And the ATG_PPARa_TRANS [1]?
A: 0

Q: And the NCGC_ERalpha_Antagonist (ERa (ESR1))?
A: 0

Q: What about the CHR_Rat_Liver_1_AnyLesion (Rat Liver [2]; [5]) of the same compound?
A: 6

Q: What about the CHR_Rat_Liver_2_PreneoplasticLesion (Rat Liver [3]; [6]) of the same compound?
A: 0

Q: What about the ATG_PBREM_CIS (CAR (NR1I3); [4]) of the same compound?
A: 0

Q: Which ATG_LXRa_TRANS (LXRa (NR1H3); HepG2 reporter) does the source give for CCc1nn(C)c(C(=O)NCc2ccc(C(C)(C)C)cc2)c1Cl [r291] here?
A: 6.444

Q: And the ATG_LXRb_TRANS (LXRb (NR1H2); HepG2 reporter)?
A: 6.337

Q: What about the CHR_Rat_Liver_1_AnyLesion (Rat Liver [2]; chronic study, rat liver) of the same compound?
A: 6

Q: And the CHR_Rat_Liver_2_PreneoplasticLesion (Rat Liver [3]; chronic study, rat liver)?
A: 6

Q: And the ATG_PBREM_CIS (CAR (NR1I3); HepG2 reporter)?
A: 5.745

Q: With O=C1C2CC=CCC2C(=O)N1SC(Cl)(Cl)Cl (centres unmarked) [r51] as the compound, how does the ATG_LXRa_TRANS (LXRa (NR1H3); [4]) read?
A: 0

Q: What about the ATG_LXRb_TRANS (LXRb (NR1H2); [4]) of the same compound?
A: 0

Q: And the ATG_PPARa_TRANS [1]?
A: 0

Q: And the NCGC_ERalpha_Antagonist (ERa (ESR1))?
A: 0

Q: And the ATG_PBREM_CIS (CAR (NR1I3); [4])?
A: 0

Q: Which ATG_LXRa_TRANS (LXRa (NR1H3); [4]) does the source give for Cc1c(COC(=O)C2C(/C=C(\Cl)C(F)(F)F)C2(C)C)cccc1-c1ccccc1 (centres unmarked) [r39] here?
A: 0

Q: And the ATG_LXRb_TRANS (LXRb (NR1H2); [4])?
A: 0

Q: What about the ATG_PPARa_TRANS [1] of the same compound?
A: 0

Q: What about the NCGC_ERalpha_Antagonist (ERa (ESR1)) of the same compound?
A: 0

Q: What about the CHR_Rat_Liver_1_AnyLesion (Rat Liver [2]; [5]) of the same compound?
A: 0

Q: And the CHR_Rat_Liver_2_PreneoplasticLesion (Rat Liver [3]; [6])?
A: 0

Q: What about the ATG_PBREM_CIS (CAR (NR1I3); [4]) of the same compound?
A: 0

Q: With CC(C)OC(=O)Nc1cccc(Cl)c1 [r59] as the compound, how does the ATG_LXRa_TRANS (LXRa (NR1H3); [4]) read?
A: 0

Q: What about the ATG_LXRb_TRANS (LXRb (NR1H2); [4]) of the same compound?
A: 0

Q: What about the ATG_PPARa_TRANS [1] of the same compound?
A: 0

Q: And the NCGC_ERalpha_Antagonist (ERa (ESR1))?
A: 0

Q: What about the CHR_Rat_Liver_1_AnyLesion (Rat Liver [2]; [5]) of the same compound?
A: 6

Q: And the CHR_Rat_Liver_2_PreneoplasticLesion (Rat Liver [3]; [6])?
A: 6

Q: Which results are given for COc1cc(Cl)c(OC)cc1Cl [r57]?
A: ATG_LXRa_TRANS (LXRa (NR1H3); [4]): 0; ATG_LXRb_TRANS (LXRb (NR1H2); [4]): 0; ATG_PPARa_TRANS [1]: 0; NCGC_ERalpha_Antagonist (ERa (ESR1)): 0

Q: Which ATG_LXRa_TRANS (LXRa (NR1H3); [4]) does the source give for CNC(=O)Oc1cccc2ccccc12 [r52] here?
A: 0

Q: What about the ATG_LXRb_TRANS (LXRb (NR1H2); [4]) of the same compound?
A: 0

Q: What about the ATG_PPARa_TRANS [1] of the same compound?
A: 0

Q: What about the NCGC_ERalpha_Antagonist (ERa (ESR1)) of the same compound?
A: 0

Q: And the CHR_Rat_Liver_1_AnyLesion (Rat Liver [2]; [5])?
A: 6

Q: What about the CHR_Rat_Liver_2_PreneoplasticLesion (Rat Liver [3]; [6]) of the same compound?
A: 6

Q: And the ATG_PBREM_CIS (CAR (NR1I3); [4])?
A: 0

Q: Which results are given for CC(C)(c1ccc(O)cc1)c1ccc(O)cc1 [r40]?
A: ATG_LXRa_TRANS (LXRa (NR1H3); [4]): 0; ATG_LXRb_TRANS (LXRb (NR1H2); [4]): 0; ATG_PPARa_TRANS [1]: 0; NCGC_ERalpha_Antagonist (ERa (ESR1)): 4.77; CHR_Rat_Liver_1_AnyLesion (Rat Liver [2]; [5]): 0; CHR_Rat_Liver_2_PreneoplasticLesion (Rat Liver [3]; [6]): 0; ATG_PBREM_CIS (CAR (NR1I3); [4]): 0

Q: With O=C(Nc1ccccc1-c1ccc(Cl)cc1)c1cccnc1Cl [r42] as the compound, how does the ATG_LXRa_TRANS (LXRa (NR1H3); [4]) read?
A: 0

Q: And the ATG_LXRb_TRANS (LXRb (NR1H2); [4])?
A: 0

Q: And the ATG_PPARa_TRANS [1]?
A: 0

Q: What about the NCGC_ERalpha_Antagonist (ERa (ESR1)) of the same compound?
A: 0

Q: What about the CHR_Rat_Liver_1_AnyLesion (Rat Liver [2]; [5]) of the same compound?
A: 6

Q: And the CHR_Rat_Liver_2_PreneoplasticLesion (Rat Liver [3]; [6])?
A: 6

Q: And the ATG_PBREM_CIS (CAR (NR1I3); [4])?
A: 0

Q: For CCCC1COC(Cn2cncn2)(c2ccc(Cl)cc2Cl)O1 (centres unmarked) [r262], which CHR_Rat_Liver_1_AnyLesion (Rat Liver [2]; rat, chronic study) is on record?
A: 6

Q: And the CHR_Rat_Liver_2_PreneoplasticLesion (Rat Liver [3]; rat, chronic study)?
A: 0

Q: With CC1=C(C(=O)Nc2ccccc2)SCCO1 [r53] as the compound, how does the ATG_LXRa_TRANS (LXRa (NR1H3); [4]) read?
A: 0

Q: And the ATG_LXRb_TRANS (LXRb (NR1H2); [4])?
A: 0

Q: And the ATG_PPARa_TRANS [1]?
A: 0

Q: What about the NCGC_ERalpha_Antagonist (ERa (ESR1)) of the same compound?
A: 0

Q: And the CHR_Rat_Liver_1_AnyLesion (Rat Liver [2]; [5])?
A: 0

Q: And the CHR_Rat_Liver_2_PreneoplasticLesion (Rat Liver [3]; [6])?
A: 0

Q: With COc1cccc(C(=O)NN(C(=O)c2cc(C)cc(C)c2)C(C)(C)C)c1C [row 202] as the compound, how does the CHR_Rat_Liver_1_AnyLesion (Rat Liver [2]; chronic rat study, liver) read?
A: 6

Q: What about the CHR_Rat_Liver_2_PreneoplasticLesion (Rat Liver [3]; chronic rat study, liver) of the same compound?
A: 0
